The source of these data is PMC2192259 (The Journal of Experimental Medicine, 1995).

This series relates to 20S proteasome. In words: 20S proteasome from BALB.SV cells in assay buffer. The conditions noted are these: 37C, up to 24 h.

Entries after “also recorded” stand apart in the source; their conditions may differ.

MDIGAYPHFMPTNLAGDPY: the fragment found result is given as “YPHFMPTNL, major; also recorded: YPH- FMPTNL(ox)”.
